Values quoted from earlier work in patent US7417156B2, “Orally active, antimalarial, anticancer, artemisinin-derived trioxane dimers” (Johns Hopkins University, priority 2002, dated 2008).

Conditions: in vivo; cited from earlier work

For C[C@H]1[C@@H](O)O[C@@H]2O[C@@]3(C)CC[C@H]4[C@H](C)CC[C@@H]1[C@@]24OO3 [Compound 31, dihydroartemisinin], the half-life in plasma is listed as “less than two hours”.
